Data: patent US5604203A, “Analogs of peptide YY and uses thereof” (University of Cincinnati, priority 1994, dated 1997)
Ends that are not written are not given here. Peptide text beside a SMILES is read from it.

T1: intestinal PYY-preferring receptors (Rattus norvegicus, UniProt Q9ERC0)
T1 sequence (Q9ERC0 1-381): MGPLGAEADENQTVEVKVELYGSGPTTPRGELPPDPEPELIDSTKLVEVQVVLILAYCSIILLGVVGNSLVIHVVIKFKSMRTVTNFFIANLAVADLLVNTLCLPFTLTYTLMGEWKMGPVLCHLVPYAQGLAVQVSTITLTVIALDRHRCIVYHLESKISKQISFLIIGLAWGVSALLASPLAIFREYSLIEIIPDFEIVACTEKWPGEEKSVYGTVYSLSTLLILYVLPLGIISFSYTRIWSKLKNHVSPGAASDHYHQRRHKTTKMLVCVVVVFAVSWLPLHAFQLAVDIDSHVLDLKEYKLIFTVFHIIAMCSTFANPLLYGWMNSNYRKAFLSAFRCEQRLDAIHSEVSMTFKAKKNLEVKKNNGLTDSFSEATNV


These molecules were tested against T1, intestinal PYY-preferring receptors (assay: not given). Details: not given.

| Molecule | IC50 |
| --- | --- |
| CC(=O)N[C@@H](C)C(=O)N[C@@H](CO)C(=O)N[C@@H](CC(C)C)C(=O)N[C@@H](CCCNC(=N)N)C(=O)N[C@@H](Cc1c[nH]cn1)C(=O)N[C@@H](Cc1ccc2ccccc2c1)C(=O)N[C@@H](CC(C)C)C(=O)N[C@@H](CC(N)=O)C(=O)N[C@@H](CC(C)C)C(=O)N[C@H](C(=O)N[C@H](C(=O)N[C@@H](CCCNC(=N)N)C(=O)N[C@@H](CCC(N)=O)C(=O)N[C@@H](CCCNC(=N)N)C(=O)N[C@@H](Cc1ccc(O)cc1)C(N)=O)[C@@H](C)O)C(C)C [Peptide 911, N-α-Ac-A S L R H [NaL] L N L V T R Q R Y--NH2] (HELM PEPTIDE1{[ac].A.S.L.R.H.[O=C([C@H](Cc1ccc2ccccc2c1)N[*:1])[*:2]].L.N.L.V.T.R.Q.R.Y.[am]}$$$$V2.0) | 0.39 nM |

Same assay, conditions: BINDING IC50 (nM), Table 1; 125I-PYY, rat jejunal membranes; mean of three separate experiments

| IC50 | Molecule |
| --- | --- |
| 1.12 nM | CC(=O)N[C@@H](C)C(=O)N[C@@H](CO)C(=O)N[C@@H](CC(C)C)C(=O)N[C@@H](CCCNC(=N)N)C(=O)N[C@@H](Cc1cnc[nH]1)C(=O)N[C@@H](Cc1ccc(O)cc1)C(=O)N[C@@H](CC(C)C)C(=O)N[C@@H](CC(N)=O)C(=O)N[C@@H](CC(C)C)C(=O)N[C@H](C(=O)N[C@H](C(=O)N[C@@H](CCCNC(=N)N)C(=O)N[C@@H](CCC(N)=O)C(=O)N[C@@H](CCCNC(=N)N)C(=O)N[C@@H](Cc1ccc(O)cc1)C(N)=O)[C@@H](C)O)C(C)C [N-α-Ac-PYY(22-36), N-α-Ac-A S L R H Y L N L V T R Q R Y--NH2] |
| > 10000 nM | AALRHYLNLVARQRY-NH2 [[Ala^23,32]PYY(22-36), A [Ala] L R H Y L N L V [Ala] R Q R Y-NN2] |
| 199 nM | ASLRHYENLVTRQRY-NH2 [[Glu^28]PYY(22-36), A S L R H Y [Glu] N L V T R Q R Y--NH2] |
| 71 nM | ASLRHYLNLVARQRY-NH2 [[Ala^32]PYY(22-36), A S L R H Y L N L V [Ala] R Q R Y--NH2] |
| 0.8 nM | Ac-ASLRHFLNLVTRQRY-NH2 [N-α-Ac-[Phe^27]PYY(22-36)] |

Same assay, conditions: IC50 (nM), Table 2; receptor binding data

| IC50 | Molecule |
| --- | --- |
| 0.08 nM | CC(=O)N[C@@H](C)C(=O)N[C@@H](CO)C(=O)N[C@@H](CC(C)C)C(=O)N[C@@H](CCCNC(=N)N)C(=O)N[C@@H](Cc1cnc[nH]1)C(=O)N[C@@H](Cc1ccc(O)cc1)C(=O)N[C@@H](CC(C)C)C(=O)N[C@@H](CC(N)=O)C(=O)N[C@@H](CC(C)C)C(=O)N[C@H](C(=O)N[C@H](C(=O)N[C@@H](CCCNC(=N)N)C(=O)N[C@@H](CCC(N)=O)C(=O)N[C@@H](CCCNC(=N)N)C(=O)N[C@@H](Cc1ccc(O)cc1)C(N)=O)[C@@H](C)O)C(C)C [N-α-Ac-PYY(22-36), N-α-Ac-A S L R H Y L N L V T R Q R Y--NH2] |
| 0.22 nM | CC(=O)N[C@@H](C)C(=O)N[C@@H](CO)C(=O)N[C@@H](CC(C)C)C(=O)N[C@@H](CCCNC(=N)N)C(=O)N[C@@H](Cc1c[nH]cn1)C(=O)N[C@@H](Cc1csc2ccccc12)C(=O)N[C@@H](CC(C)C)C(=O)N[C@@H](CC(N)=O)C(=O)N[C@@H](CC(C)C)C(=O)N[C@H](C(=O)N[C@H](C(=O)N[C@@H](CCCNC(=N)N)C(=O)N[C@@H](CCC(N)=O)C(=O)N[C@@H](CCCNC(=N)N)C(=O)N[C@@H](Cc1ccc(O)cc1)C(N)=O)[C@@H](C)O)C(C)C [Peptide 905, N-α-Ac-A S L R H [Bth] L N L V T R Q R Y--NH2] (HELM PEPTIDE1{[ac].A.S.L.R.H.[O=C([C@H](Cc1csc2ccccc12)N[*:1])[*:2]].L.N.L.V.T.R.Q.R.Y.[am]}$$$$V2.0) |
| 0.1 nM | Ac-ASLRHWLNLVTRQRY-NH2 [Peptide 915, N-α-Ac-A S L R H [Trp] L N L V T R Q R Y--NH2] |

Continued, molecule first:

| Molecule | IC50 |
| --- | --- |
| CC(=O)N[C@@H](C)C(=O)N[C@@H](CO)C(=O)N[C@@H](CC(C)C)C(=O)N[C@@H](CCCN=C(N)N)C(=O)N[C@@H](Cc1c[nH]cn1)C(=O)N[C@@H](Cc1ccc(-c2ccccc2)cc1)C(=O)N[C@@H](CC(C)C)C(=O)N[C@@H](CC(N)=O)C(=O)N[C@@H](CC(C)C)C(=O)N[C@H](C(=O)N[C@H](C(=O)N[C@@H](CCCN=C(N)N)C(=O)N[C@@H](CCC(N)=O)C(=O)N[C@@H](CCCN=C(N)N)C(=O)N[C@@H](Cc1ccc(O)cc1)C(N)=O)[C@@H](C)O)C(C)C [Peptide 906, N-α-Ac-A S L R H [Bip] L N L V T R Q R Y--NH2] (HELM PEPTIDE1{[ac].A.S.L.R.H.[O=C([C@H](Cc1ccc(-c2ccccc2)cc1)N[*:1])[*:2]].L.N.L.V.T.R.Q.R.Y.[am]}$$$$V2.0) | 4.46 nM |
| CC(=O)N[C@@H](C)C(=O)N[C@@H](CO)C(=O)N[C@@H](CC(C)C)C(=O)N[C@@H](CCCNC(=N)N)C(=O)N[C@@H](Cc1c[nH]cn1)C(=O)N[C@@H](Cc1cccs1)C(=O)N[C@@H](CC(C)C)C(=O)N[C@@H](CC(N)=O)C(=O)N[C@@H](CC(C)C)C(=O)N[C@H](C(=O)N[C@H](C(=O)N[C@@H](CCCNC(=N)N)C(=O)N[C@@H](CCC(N)=O)C(=O)N[C@@H](CCCNC(=N)N)C(=O)N[C@@H](Cc1ccc(O)cc1)C(N)=O)[C@@H](C)O)C(C)C [Peptide 916] (HELM PEPTIDE1{[ac].A.S.L.R.H.[O=C([C@H](Cc1cccs1)N[*:1])[*:2]].L.N.L.V.T.R.Q.R.Y.[am]}$$$$V2.0) | 0.095 nM |

Same assay, conditions: IC50 (nM), Table 3; binding activity

| IC50 | Molecule |
| --- | --- |
| 4.46 nM | CC(=O)N[C@@H](C)C(=O)N[C@@H](CO)C(=O)N[C@@H](CC(C)C)C(=O)N[C@@H](CCCNC(=N)N)C(=O)N[C@@H](Cc1cnc[nH]1)C(=O)N[C@@H](Cc1ccccc1)C(=O)N[C@@H](CC(C)C)C(=O)N[C@@H](CC(N)=O)C(=O)N[C@@H](CC(C)C)C(=O)N[C@H](C(=O)N[C@H](C(=O)N[C@@H](CCCNC(=N)N)C(=O)N[C@@H](CCC(N)=O)C(=O)N[C@@H](CCCNC(=N)N)C(=O)N[C@@H](Cc1cccs1)C(N)=O)[C@@H](C)O)C(C)C [Peptide 917, M-α-Ac-A S L R H (Phel L N L V T R Q R [Thi]-NH2] (HELM PEPTIDE1{[ac].A.S.L.R.H.F.L.N.L.V.T.R.Q.R.[O=C([C@H](Cc1cccs1)N[*:1])[*:2]].[am]}$$$$V2.0) |
| 11.2 nM | Ac-FSLRHFLNLVTRQRY-NH2 [Peptide 908, N-α-Ac-[Phe]S L R N [Phe] L N L V T R Q R Y--NH2] |
| 0.1 nM | Ac-YSLRHFLNLVTRQRY-NH2 [Peptide 910, N-α-Ac-[Tyr] S L R H [Phe] L N L V T R Q R Y--NH2] |

| Molecule | IC50 |
| --- | --- |
| CC(=O)N[C@@H](C)C(=O)N[C@@H](CO)C(=O)N[C@@H](CC(C)C)C(=O)N[C@@H](CCCNC(=N)N)C(=O)N[C@@H](Cc1c[nH]cn1)C(=O)N[C@@H](Cc1ccc(Cl)cc1)C(=O)N[C@@H](CC(C)C)C(=O)N[C@@H](CC(N)=O)C(=O)N[C@@H](CC(C)C)C(=O)N[C@H](C(=O)N[C@H](C(=O)N[C@@H](CCCNC(=N)N)C(=O)N[C@@H](CCC(N)=O)C(=O)N[C@@H](CCCNC(=N)N)C(=O)N[C@@H](Cc1ccc(O)cc1)C(N)=O)[C@@H](C)O)C(C)C [Peptide 904, N-α-Ac-A S L R H [Pcp] L N L V T R Q R Y--NH2] (HELM PEPTIDE1{[ac].A.S.L.R.H.[O=C([C@H](Cc1ccc(Cl)cc1)N[*:1])[*:2]].L.N.L.V.T.R.Q.R.Y.[am]}$$$$V2.0) | 1.58 nM |

Each molecule was assayed against PYY receptor of rat jejunal epithelial plasma membranes (rat) (assay: competition with 0.05 nM 125I-PYY on rat jejunal epithelial plasma membranes). Details: not given.

| IC50 | Molecule |
| --- | --- |
| 4 nM | PYY(22-36) (peptide) |
| 199 nM | ASLRHYENLVTRQRY-NH2 [[Glu^28 ]PYY(22-36)] |

Further lines, the molecule ahead of its results:

| Molecule | IC50 |
| --- | --- |
| NPY (neuropeptide Y) (ligand) | 2 nM |
| [im-DNP-His^26 ]PYY (peptide) | 4 nM |
| ASLRHYLNLVARQRY-NH2 [[Ala^32 ]PYY(22-36)] | 71 nM |
| AALRHYLNLVARQRY-NH2 [[Ala^23,32 ]PYY(22-36)] | > 10000 nM |

The molecules below were run against PYY receptor of rat jejunal epithelial plasma membranes (rat) (assay: competition with 125I-PYY on rat jejunal membranes). Details: not given.

| IC50 | Molecule |
| --- | --- |
| 0.15 nM | N-α-Ac-[Phe^27 ]PYY(25-36) (peptide) |
